Assay results reported in patent US5830863A, “Neurokinin A antagonists” (priority 1996, dated 1998).
Like-named read-outs stand apart in the source and are kept apart here. Residues, ends and D or L forms follow the SMILES beside them.

How the values were obtained:
[1] = molecular target: T1, NK-1 (substance P receptor) (Rattus norvegicus, UniProt P14600); assay: NK-1 substance P receptor preparation from rat salivary gland, binding
T1 construct: substance P receptor preparation from rat salivary gland; from tissue; host or cells: rat salivary gland
T1 sequence (P14600 whole entry): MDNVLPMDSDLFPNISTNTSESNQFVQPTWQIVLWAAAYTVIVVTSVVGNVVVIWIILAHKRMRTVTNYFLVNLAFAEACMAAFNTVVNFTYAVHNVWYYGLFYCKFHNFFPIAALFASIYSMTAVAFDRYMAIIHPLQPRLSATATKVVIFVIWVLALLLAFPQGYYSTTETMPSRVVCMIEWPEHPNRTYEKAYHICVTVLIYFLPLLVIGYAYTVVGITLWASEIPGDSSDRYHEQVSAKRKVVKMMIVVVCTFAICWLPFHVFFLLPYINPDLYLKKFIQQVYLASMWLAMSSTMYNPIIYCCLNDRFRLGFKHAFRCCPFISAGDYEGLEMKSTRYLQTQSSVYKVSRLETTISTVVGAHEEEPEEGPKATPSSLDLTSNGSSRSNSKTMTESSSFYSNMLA
Description: (§1) Values given indicate the concentration in nanomoles of antagonist to reach the IC50 of the neurokinin A (NKA) receptor. SKLKB82#3 represents a cloned NK-2 receptor cell line; the sample is prepared from the scraped cell pellet for assay as earlier described for the hamster urinary bladder preparations. NK-1 represents a substance P receptor preparation from rat salivary gland; receptors are prepared as earlier described for the hamster urinary bladder preparations.

[2] = molecular target: T2, neurokinin A (NKA) receptor (NK-2) (Mesocricetus auratus, UniProt P51144); assay: displacement of I125 labeled NKA from hamster urinary bladder membranes; type: binding
T2 construct: displace I125 labeled NKA from hamster urinary bladder; from tissue; host or cells: hamster urinary bladder (membranes in A1, chopped tissue in A4)
T2 sequence (P51144 1-384): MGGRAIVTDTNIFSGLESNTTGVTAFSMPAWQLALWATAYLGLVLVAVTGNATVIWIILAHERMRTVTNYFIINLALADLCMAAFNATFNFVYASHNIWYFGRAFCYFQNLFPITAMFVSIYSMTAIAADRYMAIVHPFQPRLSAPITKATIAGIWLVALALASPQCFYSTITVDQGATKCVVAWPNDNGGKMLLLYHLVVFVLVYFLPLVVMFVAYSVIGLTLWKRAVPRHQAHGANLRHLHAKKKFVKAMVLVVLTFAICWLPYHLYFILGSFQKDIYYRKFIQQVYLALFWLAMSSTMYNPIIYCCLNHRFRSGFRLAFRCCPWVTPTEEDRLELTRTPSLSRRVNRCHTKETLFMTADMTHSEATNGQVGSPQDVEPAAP
Description: The abscissa (x-axis) logarithmically indicates the concentration in nanomoles of agonist of antagonist of the neurokinin A (NKA) receptor. The ordinate (Y-axis) indicates the observed specific binding for each tested agonist or antagonist measured as a percentage of maximum specific binding.
Agonists tested were NKA and fragments of NKA consisting of the third to tenth (NKA(3-10)) amino acids and the fourth to tenth (NKA(4-10)) amino acids. Values are MEAN±S.E.M. of 6-12 experiments. IC50 values estimated graphically from 50% inhibition point.
Urinary bladders from several hamsters were pooled, minced, and homogenized in 50 mM TRIS-HCl (pH 7.4) containing 120 mM NaCl and 5 mM KCl at 4° C. and centrifuged at 48,000×g for 15 minutes. The pellet was resuspended for 30 minutes in 50 mM TRIS-HCl (pH 7.4) containing 10 mM EDTA and 300 mM KCl at 4° C. The suspension was centrifuged as above and the pellet was washed two times in plain 50 mM TRIS-HCl (pH 7.4) and centrifuged similarly. The tissue was then resuspended in incubation buffer and an aliquot (approximately 3-5 mg tissue) was added to each assay tube to commence the assay. The assay tubes contained incubation buffer consisting of 50 mM TRIS-HCl (pH 7.4), 0.02% BSA, 40 μg/ml bacitracin, 4 μg/ml chymostatin, 4 μg/ml leupeptin, 2 mM MnCl2, 0.1 nM ^125 iodohistidyl^1 -neurokinin A (Amersham Corp.), and concentrations of the title compounds or standards ranging from 0.03 nM to 100 μM. The assay was allowed to proceed to equilibrium for 120 min at room temperature. After this time, the contents of each tube was rapidly filtered over Whatman GF/B filters presoaked in 0.5% BSA and the filters were rapidly washed two times with ice-cold plain 50 mM TRIS-HCl (pH 7.4). Filter-bound radioactivity was quantitated in a gamma counter. Specific binding (maximum) was defined as the difference between binding in the presence and absence of 1 μM unlabeled neurokinin A. Competition of iodinated neurokinin A binding by test compounds or standards was expressed as a percentage of this maximum competition.
Values given indicate the concentration in nanomoles of antagonist to reach the IC50 of the neurokinin A (NKA) receptor. SKLKB82#3 represents a cloned NK-2 receptor cell line; the sample is prepared from the scraped cell pellet for assay as earlier described for the hamster urinary bladder preparations. NK-1 represents a substance P receptor preparation from rat salivary gland; receptors are prepared as earlier described for the hamster urinary bladder preparations. Blank spaces indicate compound has not been tested in that particular assay.

[3] = molecular target: T3, cloned NK-2 receptor (SKLKB82#3 cell line) (Bos taurus, UniProt P05363); assay: I125 NKA binding to SKLKB82#3 cloned NK-2 receptor cell line
T3 construct: expressed in transfected cells; host or cells: SKLKB82#3 cell line (scraped cell pellet)
T3 sequence (P05363 1-384): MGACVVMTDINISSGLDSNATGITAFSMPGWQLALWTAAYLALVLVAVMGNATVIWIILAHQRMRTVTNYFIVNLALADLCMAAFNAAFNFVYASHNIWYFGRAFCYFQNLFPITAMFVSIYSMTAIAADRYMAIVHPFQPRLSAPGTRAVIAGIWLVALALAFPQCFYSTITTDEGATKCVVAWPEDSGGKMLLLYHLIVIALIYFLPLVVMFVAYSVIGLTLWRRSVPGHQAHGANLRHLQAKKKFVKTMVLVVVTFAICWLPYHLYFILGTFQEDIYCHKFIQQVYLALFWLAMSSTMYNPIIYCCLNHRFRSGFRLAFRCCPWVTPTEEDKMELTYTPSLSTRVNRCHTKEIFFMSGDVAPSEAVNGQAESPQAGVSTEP
Description: as §1

[4] = cloned NK-2 receptor cell line, scraped cell pellet, read-out: SKLKB82#3 IC50

| SMILES | IC50 [1] | IC50 [2] | IC50 [3, 4] | IC50 [3] |
| --- | --- | --- | --- | --- |
| CSCC[C@H](NC[C@H](CC(C)C)NC(=O)CNC(=O)[C@@H](NC(=O)[C@H](Cc1ccccc1)NC(=O)[C@H](CO)NC(=O)[C@@H](N)CC(=O)O)C(C)C)C(N)=O [MDL 29,646, Asp--Ser--Phe--Val--Gly--Leu(.psi.(CH2 NH))Met--NH2] (HELM PEPTIDE1{D.S.F.V.G.[CSCC[C@H](NC[C@H](CC(C)C)N[*:1])C(N)=O]}$$$$V2.0) | > 10 µM | 0.05 ± 0.005 µM |  |  |
| CC(C)C[C@H](NC(=O)[C@H](CC(C)C)NC(=O)CNC(=O)[C@H](C(C)C)N(C)C[C@H](Cc1ccccc1)NC(=O)[C@H](CO)NC(=O)[C@@H](N)CC(=O)O)C(N)=O [MDL 29,678, Asp--Ser--Phe[.psi.(CH2 NCH3)]Val--Gly--Leu--Leu--NH2] (HELM PEPTIDE1{D.S.[CC(C)[C@@H](C(=O)[*:2])N(C)C[C@H](Cc1ccccc1)N[*:1]].G.L.L.[am]}$$$$V2.0) |  | > 10 µM |  |  |
| CC(C)C[C@H](NC(=O)[C@H](CC(C)C)NC(=O)CN(C)C[C@@H](NC(=O)[C@H](Cc1ccccc1)NC(=O)[C@H](CO)NC(=O)[C@@H](N)CC(=O)O)C(C)C)C(N)=O [MDL 29,712, Asp--Ser--Phe--Val[.psi.(CH2 NCH3)]Gly--Leu--Leu--NH2] (HELM PEPTIDE1{D.S.F.[CC(C)[C@@H](CN(C)CC(=O)[*:2])N[*:1]].L.L.[am]}$$$$V2.0) |  | > 5 µM |  |  |
| CC(C)C[C@@H](CO)NC[C@H](CC(C)C)NC(=O)CNC(=O)[C@@H](NC(=O)[C@H](Cc1ccccc1)NC(=O)[C@H](CO)NC(=O)[C@@H](N)CC(=O)O)C(C)C [MDL 102,678, Asp--Ser--Phe--Val--Gly--Leu[.psi.(CH2 NH)]Leu--CH2 OH] (HELM PEPTIDE1{D.S.F.V.G.[CC(C)C[C@@H](CO)NC[C@H](CC(C)C)N[*:1]]}$$$$V2.0) |  | > 10 µM | > 10 µM |  |
| CC(C)C[C@@H](CN[C@@H](CC(C)C)C(N)=O)NC(=O)CCNC(=O)[C@@H](NC(=O)[C@H](Cc1ccccc1)NC(=O)[C@H](CO)NC(=O)[C@@H](N)CC(=O)O)C(C)C [MDL 102,500, Asp-Ser-Phe-Val-β-Ala-Leu(.PSI.(CH2 NH))Leu-NH2] (HELM PEPTIDE1{D.S.F.V.[bAla].[CC(C)C[C@@H](CN[C@@H](CC(C)C)C(N)=O)N[*:1]]}$$$$V2.0) |  | 0.019 ± 0.003 µM |  |  |
| CCN(C[C@H](CC(C)C)NC(=O)CNC(=O)[C@@H](NC(=O)[C@H](Cc1ccccc1)NC(=O)[C@H](CO)NC(=O)[C@@H](N)CC(=O)O)C(C)C)[C@@H](CC(C)C)C(N)=O [MDL 29,716, Asp-Ser-Phe-Val-Gly-Leu(.PSI.(CH2 NCH2 CH3))Leu-NH2] (HELM PEPTIDE1{D.S.F.V.G.[CCN(C[C@H](CC(C)C)N[*:1])[C@@H](CC(C)C)C(N)=O]}$$$$V2.0) |  | 0.257 ± 0.03 µM | 4.73 ± 0.393 µM |  |
| CC(C)C[C@H](NC(=O)[C@H](CC(C)C)N(C)CCNC(=O)[C@@H](NC(=O)[C@H](Cc1ccccc1)NC(=O)[C@H](CO)NC(=O)[C@@H](N)CC(=O)O)C(C)C)C(N)=O [MDL 102,369, Asp--Ser--Phe--Val--Gly[.psi.CH2 NCH3)]Leu--Leu--NH2] (HELM PEPTIDE1{D.S.F.V.[CC(C)C[C@@H](C(=O)[*:2])N(C)CCN[*:1]].L.[am]}$$$$V2.0) |  | > 10 µM |  |  |
| CCCN(C[C@H](CC(C)C)NC(=O)CNC(=O)[C@@H](NC(=O)[C@H](Cc1ccccc1)NC(=O)[C@H](CO)NC(=O)[C@@H](N)CC(=O)O)C(C)C)[C@@H](CC(C)C)C(N)=O [MDL 102,863, Asp-Ser-Phe-Val-Gly-Leu(.PSI.(CH2 N(CH2)2 CH3))Leu-NH2] (HELM PEPTIDE1{D.S.F.V.G.[CCCN(C[C@H](CC(C)C)N[*:1])[C@@H](CC(C)C)C(N)=O]}$$$$V2.0) |  | 0.103 ± 0.013 µM |  |  |
| CC(C)C[C@@H](CN[C@@H](Cc1ccccc1)C(N)=O)NC(=O)CNC(=O)[C@@H](NC(=O)[C@H](Cc1ccccc1)NC(=O)[C@H](CO)NC(=O)[C@@H](N)CC(=O)O)C(C)C [MDL 101,382, Asp--Ser--Phe--Val--Gly--Leu(.psi.(CH2 NH))Phe--NH2] (HELM PEPTIDE1{D.S.F.V.G.[CC(C)C[C@@H](CN[C@@H](Cc1ccccc1)C(N)=O)N[*:1]]}$$$$V2.0) |  | 0.005 µM |  | 0.2 µM |
| CC(C)C[C@H](NC(=O)[C@H](CC(C)C)NC(=O)CNC(=O)[C@@H](NC(=O)[C@H](Cc1ccccc1)NC(=O)[C@H](CO)NCCCC(=O)O)C(C)C)C(N)=O [MDL 101,905, Suc[.psi.(CH2 NH)]Ser--Phe--Val--Gly--Leu--Leu--NH2] (HELM PEPTIDE1{[O=C(O)CCCN[C@@H](CO)C(=O)[*:2]].F.V.G.L.L.[am]}$$$$V2.0) |  | 2 µM |  |  |
| CC(C)C[C@H](NC(=O)[C@H](CC(C)C)NC(=O)CNC[C@@H](NC(=O)[C@H](Cc1ccccc1)NC(=O)[C@H](CO)NC(=O)[C@@H](N)CC(=O)O)C(C)C)C(N)=O [MDL 29,882, Asp--Ser--Phe--Val[.psi.(CH2 NH)]Gly--Leu--Leu--NH2] | > 100 µM | > 5 µM |  |  |
